Assay results reported in patent US12280121B2, “Immunoconjugates and methods” (Immunome, Inc., priority 2021, dated 2025).
Where a name gives a salt, the structure may show the parent alone. Read-outs that look alike come from different tables or passages of the source. Non-standard residues stand in square brackets, D forms with d. Residues, ends and D or L forms follow the SMILES beside them. *: point of attachment. Dolaproine = CO[C@@H]([C@@H]1CCCN1)[C@@H](C)C(=O)O; Dil = CC[C@H](C)[C@H](NC)[C@@H](CC(=O)O)OC; X1 = C[C@@H](N*)[C@@H](O)c1ccccc1; NMeV = CN[C@H](C(=O)O)C(C)C

Assays:
[1] = AC-SINS self-interaction assay; format: physicochemical; conditions: FIG. 30
Protocol: Antibody developability was assessed by performing an AC-SINS assay and evaluating the potential for self-interaction.
An initial assessment of antibody developability was performed by AC-SINS to evaluate the potential for self-interaction (FIG. 30).

human liver microsome = assay: Human liver microsome clearance (HLM CL); format: in vitro ADME; conditions: human liver microsomes 0.5 mg protein/mL, NADPH, 60 min
Protocol: (§1) Working solution was prepared by adding 5 μL of compound and control stock solution (10 mM in dimethyl sulfoxide, DMSO) to 495 μL of acetonitrile (ACN) (intermediate solution concentration: 100 μM, 99% CAN and 1% DMSO. The appropriate concentrations of microsome working solutions were prepared in 100 mM potassium phosphate buffer. After reaction plates containing mixtures of compound and microsomes were pre-incubated at 37° C. for 10 min, […] of 2 mM of NADPH and 2 mM of MgCl2 solution was added to start the reaction. The final concentrations of incubation medium were as follows: microsome—0.5 mg protein/mL, test compound/control […], NADPH—1 mM, MgCl2 —1 mM, acetonitrile 0.99%, DMSO 0.01%. Incubations were performed at 37° C. for 60 min. Samples were taken out at TO, T5, T15, T30, T45 and T60, which was added intermediately to the ice-cold stop solution (acetonitrile with 200 ng/mL of tobutamide and labetalol as internal standard) (125 μl), shaken for 10 min, centrifuged at 4000 rpm for 20 min at 4° C. Analytical plates were analyzed by LCMS.
(§2) Human liver microsome clearance assay assess metabolism by the cytochrome P450 system (phase I enzymes). These enzymes oxidize substrates by incorporating oxygen atoms into hydrocarbons, thus causing the introduction of hydroxyl groups, or N- O- and S-dealkylation of substrates and forming more polar products easier to be cleared. Human hepatocyte clearance assay measures more broadly the overall cellular metabolism of the test compound (phase I and phase II enzyme pathways). Phase II enzymes catalyze the conjugation reaction of xenobiotic metabolites and charged species, such as glutathione, sulfate, glycine, or glucuronic acid to form even more polar compounds for easier clearance.

MDA-MB-468 = assay: CTG assay (CellTiter-Glo cell viability), MDA-MB-468, payload compounds; format: cell-based; conditions: 72 h, CellTiter-Glo, read-out: MDA-MB-468 IC50
Text: (§3) The CTG assay is a method of determining the number of viable cells in culture based on quantitation of the ATP present, an indicator of metabolically active cells. The cell assay requires the addition of a single reagent, Cell Titer Glo, in which cells are lysed and generation of a luminescent signal is produced. The luminescent signal is proportional to the amount of ATP present. The amount of ATP is directly proportional to the number of cells present in culture. For our assay, cells were ensured to be in log-phase for either Jeko-1 or MDA-MB-468. Cells were transferred to 96 wells and treated with compounds in three-fold serial dilution starting from 1 μM to 0.0000508 μM (10 points dilution), for 72 h. Cell viability was analyzed with CellTiter-Glo® Luminescent Cell Viability Assay (Promega) following manufactures' instruction. Percentage of viable cells in each compound concentration was determined by normalizing with the luminescence of vehicle control and plotted into percentage of viability versus dose response curve by nonlinear fit in GraphPad Prism software.

Jeko-1 [2] = assay: CTG assay of ROR-1 ADCs and toxins, JeKo-1; format: cell-based
Protocol: FIG. 33 illustrates a CTG assay wherein ROR+ (JeKo-1) cells were incubated with the ADCs generated as described in FIG. 32 in serial three-fold dilutions and cell viability was assessed after 72 hours.
as §3
Novel ROR-1 antibody-drug conjugates (ADCs) were evaluated by CTG Assay in a similar manner as was described in Example 24 for screening of payloads. […] Briefly ROR+(JeKo-1/MDA-MB-468) or ROR− (Ramos) cells were transferred to 96 wells and treated with the ADCs in three-fold serial dilution starting from […] (10 points dilution), for 72 h. Cell viability was analyzed with CellTiter-Glo® Luminescent Cell Viability Assay (Promega) following the manufactures' instructions (FIG. 33). The percentage of viable cells at each ADC concentration was determined by normalizing with the luminescence of vehicle control and plotted into percentage of viability versus dose response curve by nonlinear fit in GraphPad Prism software.

Jeko-1 [3] = assay: CTG assay (CellTiter-Glo cell viability), Jeko-1, payload compounds; format: cell-based; conditions: 72 h, CellTiter-Glo, read-out: JeKo-1 IC50
Text: as §3

human hepatocytes = assay: Human hepatocyte clearance (HHEP CL); format: in vitro ADME; parameters: CLint scaled / half-life: dose or concentration left out as unconfirmed; conditions: human hepatocytes, 90 min incubation
Protocol: (§4) Suspensions of human hepatocytes (from 10 mixed gender human donors, final concentration 0.5×10^6 cell/mL) in Williams' E medium were incubated for 90 min with a test compound (0.90% acetonitrile and 0.10% DMSO, final concentration […]) and positive controls (7-Ethoxycoumarin, 7-Hydroxycoumarin, 0.90% acetonitrile and 0.10% DMSO, final concentration […]), with constant shaking at about 600 rpm at 37° C. in an incubator at 5% CO2 and 95% humidity. The total volume of incubation was 200 μl. A sample ([…]) was taken out at TO, 15, 30, 60 and 90 min, which was added intermediately to the ice-cold stop solution (acetonitrile with 200 ng/mL of tobutamide and labetalol as internal standard) (125 μl), and vortexed at 500 rpm for 10 min, centrifuged at 3220×g for 20 min at 4° C. Analytical plates are sealed and stored at 4° C. until LCMS analysis. Viability of hepatocytes at pre-incubation was determined to be 84.5%.
as §2

[4] = Human liver microsome clearance (HLM CL); format: in vitro ADME
Protocol: as §1, §2

[5] = PAMPA (Parallel Artificial Membrane Permeability Assay); format: physicochemical
Text: PAMPA is a method which determines the permeability of substances from a donor compartment, through a lipid-infused artificial membrane into an acceptor compartment. See Ottaviani, G.; Martel, S.; Carrupt, P-A. “Parallel Artificial Membrane Permeability Assay: A New Membrane for the Fast Prediction of Passive Human Skin Permeability”, Journal of Medicinal Chemistry, 2006, 49 (13), 3948-3954). A multi-well microtitre plate is used for the donor and a membrane/acceptor compartment is placed on top; the whole assembly is commonly referred to as a “sandwich”. At the beginning of the test, the drug is added to the donor compartment, and the acceptor compartment is drug-free. After an incubation period which may include stirring, the sandwich is separated, and the amount of drug is measured in each compartment. Mass balance allows calculation of drug that remains in the membrane.
The PAMPA was performed by Pion Inc using the GIT-0 lipid and 5 μM donor solution in pH 5.0 and pH 7.4 PRISMA buffer (containing 0.05% DMSO). The higher PAMPA data has been associated with better bystander killing. (Ogitani Y.; Hagihara K.; Oitate, M.; Naito, H.; Agatsuma T. “Bystander killing effect of DS-8201a, a novel anti-human epidermal growth factor receptor 2 antibody-drug conjugate, in tumors with human epidermal growth factor receptor 2 heterogeneity” Cancer Science, 2016, 107 (7), 1039-1046).

[6] = Human hepatocyte clearance (HHEP CL); format: in vitro ADME; parameters: CLint scaled / half-life: dose or concentration left out as unconfirmed; conditions: both sexes
Protocol: as §4, §2

[7] = Jeko-1, average of run 1 and run 2, read-out: Avg. IC50
[8] = Jeko-1 P3, run 1, 72 h, read-out: Jeko-1 P3 (RUN1) IC50
[9] = Homo sapiens, Jeko-1, average of run 1 and run 2, read-out: Avg. IC50
[10] = Homo sapiens, Jeko-1 P3, run 1, 72 h, read-out: Jeko-1 P3 (RUN1) IC50
[11] = Homo sapiens, Jeko-1 P4, run 2, 72 h, read-out: Jeko-1 P4 (RUN2) IC50

Compound	CLint scaled ([4]; human, microsomes)	half-life ([4]; human, microsomes)	IC50 (MDA-MB-468; Homo sapiens, MDA-MB-468)	Papp at 5 μM ([5]; pH 5)	Papp at 5 μM ([5]; pH 7.4)	IC50 (Jeko-1 [3]; Homo sapiens, JeKo-1)	CLint scaled ([6]; human, hepatocytes)	half-life ([6]; human, hepatocytes)	other results
Adalimumab	–	–	–	–	–	–	–	–	AC-SINS shift (self-interaction) [1]: low shift
CC[C@@]1(O)C(=O)OCc2c1cc1n(c2=O)Cc2c-1nc1cc(F)c(C)c3c1c2[C@@H](NC(=O)CO)CC3 [Dxd, reference compound]	–	–	–	–	–	–	–	–	HLM (T1/2) (human liver microsome): (>145); HLM Cl (human liver microsome clearance) (human liver microsome): 8.6 mL/min/kg; IC50 (MDA-MB-468): 11.6 nM; IC50 (Jeko-1 [2]; [7]): 0.9 nM; IC50 (Jeko-1 [2]; [8]): 0.9 nM; IC50 (Jeko-1 [3]): 1.42 nM; HHEP (T1/2) (human hepatocytes): (79.0) min; HHEP Cl (human hepatocytes intrinsic clearance) (human hepatocytes): 48.7 mL/min/kg
CC[C@@]1(O)C(=O)OCc2c1cc1n(c2=O)Cc2c-1nc1cc(F)c(C)c3c1c2[C@@H](OCCO)CC3 (single isomer, unassigned) [Compound 5-48]	17.4 mL/min/kg	71.7 min	8.3 nM	69 ×10⁻⁶ cm/s	9 ×10⁻⁶ cm/s	0.68 nM	75.5 mL/min/kg	51.1 min	IC50 (Jeko-1 [2]; [9]): 0.5 nM; IC50 (Jeko-1 [2]; [10]): 0.5 nM; IC50 (Jeko-1 [2]; [11]): 0.5 nM
CC[C@@]1(O)C(=O)OCc2c1cc1n(c2=O)Cc2c-1nc1cc(F)c(C)c3c1c2[C@](C)(NCCO)CC3.Cl [Compound 17-96, (1R,9S)-9-ethyl-5-fluoro-9-hydroxy-1-((2-hydroxyethyl)amino)-1,4-dimethyl-2,3,12,15-tetrahydrobenzo[de]pyrano[3′,4′:6,7]indolizino [1,2-b]quinoline-10,13(1H,9H)-dione hydrochloride]	–	–	22 nM	–	–	2.1 nM	–	–	half-life ([4]; human liver microsomes 0.5 mg protein/mL, NADPH, 60 min, read-out: HLM (T1/2)): 17.5 min; CLint scaled ([4]; human liver microsomes 0.5 mg protein/mL, NADPH, 60 min, read-out: HLM Cl (human liver microsome clearance)): 71.3 mL/min/kg; Papp at 5 μM ([5]; pH 5.0 PRISMA buffer, GIT-0 lipid, 5 μM donor solution, read-out: PAMPA Pe pH 5.0): 62.6 ×10⁻⁶ cm/s; Papp at 5 μM ([5]; pH 7.4 PRISMA buffer, GIT-0 lipid, 5 μM donor solution, read-out: PAMPA Pe pH 7.4): 4.3 ×10⁻⁶ cm/s; half-life ([6]; human hepatocytes, 90 min incubation, read-out: HHEP (T1/2)): 82 min; CLint scaled ([6]; human hepatocytes, 90 min incubation, read-out: HHEP Cl (human hepatocytes intrinsic clearance)): 47.1 mL/min/kg
CC[C@H](C)[C@@H]([C@@H](CC(=O)N1CCC[C@H]1[C@H](OC)[C@@H](C)C(=O)N[C@H](C)[C@@H](O)c1ccccc1)OC)N(C)C(=O)[C@@H](NC(=O)[C@@H](NC)C(C)C)C(C)C [MMAE, reference compound] (H-[NMeV]V[Dil][Dolaproine]-X1)	–	–	–	–	–	–	–	–	IC50 (Jeko-1 [2]; [7]): 0.2 nM; IC50 (Jeko-1 [2]; [8]): 0.2 nM; IC50 (Jeko-1 [2]; Jeko-1 P4, run 2, 72 h, read-out: Jeko-1 P4 (RUN2) IC50): 0.2 nM
CC[C@@]1(O)C(=O)OCc2c1cc1n(c2=O)Cc2c-1nc1cc(F)c(C)c3c1c2[C@@](C)(O)CC3 (single isomer, unassigned) [Compound 13-84]	58.9 mL/min/kg	21 min	5.9 nM	64.4 ×10⁻⁶ cm/s	7.6 ×10⁻⁶ cm/s	0.61 nM	112 mL/min/kg	34 min	–
CC[C@@]1(O)C(=O)OCc2c1cc1n(c2=O)Cc2c-1nc1cc(F)c(C)c3c1c2[C@@](C)(NC(=O)CO)CC3 [Compound 9-74, N-((1S,9S)-9-ethyl-5-fluoro-9-hydroxy-1,4-dimethyl-10,13-dioxo-1,2,3,9,10,12,13,15-octahydrobenzo[de]pyrano[3′,4′:6,7]indolizino[1,2-b]quinolin-1-yl)-2-hydroxyacetamide]	22.7 mL/min/kg	54.9 min	57.7 nM	36.1 ×10⁻⁶ cm/s	4.4 ×10⁻⁶ cm/s	4.1 nM	57.5 mL/min/kg	67 min	IC50 (Jeko-1 [2]; [9]): 3.1 nM; IC50 (Jeko-1 [2]; [10]): 2.4 nM; IC50 (Jeko-1 [2]; [11]): 3.7 nM
CC[C@@]1(O)C(=O)OCc2c1cc1n(c2=O)Cc2c-1nc1cc(F)c(C)c3c1c2[C@](C)(N)CC3 (single isomer, unassigned) [Compound 8-72, hydrochloride]	35.9 mL/min/kg	35 min	7.7 nM	80.8 ×10⁻⁶ cm/s	8.4 ×10⁻⁶ cm/s	1.5 nM	79.1 mL/min/kg	49 min	–
